For the assay, the target named is T1, Peroxisome proliferator-activated receptor gamma (Homo sapiens, UniProt P37231).
T1 sequence (P37231 whole entry): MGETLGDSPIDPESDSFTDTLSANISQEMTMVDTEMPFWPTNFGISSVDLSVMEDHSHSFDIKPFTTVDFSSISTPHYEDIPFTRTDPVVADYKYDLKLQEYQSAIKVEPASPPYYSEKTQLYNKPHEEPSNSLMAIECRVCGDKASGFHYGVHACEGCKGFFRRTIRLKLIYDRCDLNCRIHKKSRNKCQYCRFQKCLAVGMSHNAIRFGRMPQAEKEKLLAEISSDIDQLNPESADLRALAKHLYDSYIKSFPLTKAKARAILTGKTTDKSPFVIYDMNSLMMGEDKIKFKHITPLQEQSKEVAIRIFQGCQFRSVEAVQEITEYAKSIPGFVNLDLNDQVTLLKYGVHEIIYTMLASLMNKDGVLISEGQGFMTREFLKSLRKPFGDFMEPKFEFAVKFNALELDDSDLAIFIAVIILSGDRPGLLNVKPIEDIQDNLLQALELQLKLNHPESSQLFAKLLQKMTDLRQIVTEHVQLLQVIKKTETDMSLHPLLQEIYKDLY

Molecules are shown by their SMILES. pEC50: −log10 of the molar value.

Description: Agonist activity at human PPARgamma expressed in NIH3T3 cells by GAL4 transactivation assay

One may read the pEC50 as −log10 of the EC50, conventionally taken in molar units. Read a high pEC50 as a low EC50. In turn, `CCOC(=O)C1=C(c2ncc[nH]2)c2ccc(OCCCc3ccccc3)cc2/C1=[N+](/C)[O-]` showed a pEC50 below 6.00.

With `CCOC(=O)C1=C(c2ccc(C)cc2)c2ccc(OCCCc3ccccc3)cc2/C1=[N+](/C)[O-]`, the pEC50 is 6.18.

In the case of `CCOC(=O)C1=C(c2ccccc2)c2ccc(OC)cc2/C1=[N+](\[O-])Cc1ccccc1`, the pEC50 was below 5.00.

`CCOC(=O)C1=C(c2cccc(C)c2)c2ccc(OCCCc3ccccc3)cc2/C1=[N+](/C)[O-]` had a pEC50 of 6.52.

As for `CCOC(=O)C1=C(c2ccccc2)c2ccc(OCCC34CC5CC(CC(C5)C3)C4)cc2/C1=[N+](/C)[O-]`, the pEC50 was 6.08.

On to `CCOC(=O)C1=C(c2ccc(Cl)cc2)c2ccc(OCCCc3ccccc3)cc2/C1=[N+](/C)[O-]`, for which the negative-log EC50 (pEC50) is 7.15.

As for `CCOC(=O)C1=C(CC)c2ccc(OCCCc3ccccc3)cc2/C1=[N+](/C)[O-]`, the pEC50 is 7.10.

As for `C/[N+]([O-])=C1\C=C(c2ccccc2)c2ccc(OCCN3CCOCC3)cc21`, the negative-log EC50 (pEC50) is 6.82.

In turn, `COC(=O)C1=C(c2ccccc2)c2ccc(OCCN3CCOCC3)cc2/C1=[N+](/C)[O-]` had a negative-log EC50 (pEC50) of 6.85.

On to `CCOC(=O)C1=C(c2ccccc2)c2ccc(OC)cc2/C1=N\O`, for which the pEC50 was below 5.00.

`CCOC(=O)C1=C(c2ccccc2)c2ccc(OC)cc2/C1=[N+](\[O-])CC` had a pEC50 below 5.00.

`C/[N+]([O-])=C1\C(C(=O)NC2CC2)=C(c2ccccc2)c2ccc(OCCN3CCOCC3)cc21` showed a pEC50 of 7.70.

`CCOC(=O)C1=C(c2ccsc2)c2ccc(OCCCc3ccccc3)cc2/C1=[N+](/C)[O-]` had a pEC50 of 6.72. This pEC50 is 0.98 log units lower than that of the compound before.

The compound `CCOC(=O)C1=C(c2ccccc2)c2ccc(OC)cc2/C1=N\OC` gave a pEC50 of 5.82.

`CCOC(=O)C1=C(c2ccc3c(c2)OCO3)c2ccc(OCCCc3ccccc3)cc2/C1=[N+](/C)[O-]` had a pEC50 of 6.60.

Compound `CCOC(=O)C1=C(c2ccccc2)c2ccc(OCc3ccccn3)cc2/C1=[N+](/C)[O-]` gave a pEC50 of 7.05.

The values above are taken from ChEMBL document CHEMBL1139756, “Synthesis and structure-activity relationship of novel indene N-oxide derivatives as potent peroxisome proliferator activated receptor gamma (PPARgamma) agonists” (Bioorg Med Chem Lett, 2007).
